Where two headings read alike, the source gives them in different places.
What was measured:
[1] = Lipophilicity, n-octanol/PBS distribution coefficient logD7.4; assay type: physicochemical; conditions: 177Lu-labeled peptide; n-octanol/PBS (1/1), n ≥ 5
Protocol: For determination of lipophilicity, the respective ^177Lu-Labeled peptide precursor (~ 1 MBq, 10 µL in 0.04 M HCl) was added to a solution of n-octanol/PBS (1/1, v/v, 1 mL) and vigourously mixed for 3 min at room temperature (n ≥ 5). Afterwards both phases were seperated using a Biofuge 15 centrifuge (Heraus Sepatech GmbH, Osterode, Germany) at 9,000 rpm for 5 min. 200 µL aliquots of both layers were collected separately, measured in a γ-counter (Perkin Elmer, Waltham, MA, USA) and the logD7.4 value was obtained.

[2] = molecular target: T1, Human serum albumin (HSA) (Homo sapiens, UniProt P02768); experiment: Human serum albumin binding via high performance affinity chromatography (HPAC); assay type: in vitro ADME; conditions: Chiralpak HSA column, n = 1
T1 construct: purchased Daicel, Tokyo, Japan H13H-2433
T1 sequence (P02768 25-609): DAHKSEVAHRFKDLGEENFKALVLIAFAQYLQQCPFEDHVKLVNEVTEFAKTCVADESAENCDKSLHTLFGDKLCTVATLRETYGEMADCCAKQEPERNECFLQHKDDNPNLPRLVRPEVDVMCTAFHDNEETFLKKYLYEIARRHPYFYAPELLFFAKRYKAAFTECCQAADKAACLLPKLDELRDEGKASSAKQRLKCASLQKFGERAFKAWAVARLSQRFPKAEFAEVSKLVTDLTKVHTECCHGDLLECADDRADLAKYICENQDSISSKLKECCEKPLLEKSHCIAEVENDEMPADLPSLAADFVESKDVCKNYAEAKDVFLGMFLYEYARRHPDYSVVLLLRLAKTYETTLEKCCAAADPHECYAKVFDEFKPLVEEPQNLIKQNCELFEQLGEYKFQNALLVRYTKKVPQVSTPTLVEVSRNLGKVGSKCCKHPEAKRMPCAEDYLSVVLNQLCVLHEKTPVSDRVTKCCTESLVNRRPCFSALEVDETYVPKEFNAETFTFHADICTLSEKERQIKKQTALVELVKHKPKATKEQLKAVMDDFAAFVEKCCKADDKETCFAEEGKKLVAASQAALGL
Protocol: Human serum albumin (HSA) binding was determined via high performance affinity chromatography (HPAC), according to previously published protocols. Human serum albumin interaction was calculated according to the retention time (n = 1) of our compounds on a Chiralpak HSA column in dependence of nine reference compounds with known HSA interaction.
Human serum albumin binding was determined via high performance affinity chromatography. Therefore, a Chiralpak HSA column (50 × 3 mm, 5 µm, H13H-2433, Daicel, Tokyo, Japan) was used at a constant flow rate of 0.5 ml/min at room temperature. Mobile phase A consisted of a freshly prepared aqueous solution of NH4OAc (pH = 6.9, 50 mM) and mobile phase B of isopropanol. Calibration of the column was performed daily prior to experiments, by determining the retention times of nine reference substances displaying a HSA binding from 13 to 99%. HPLC gradient for all compounds tested was 100% A (0 to 3 min), followed by 80% A (3 to 40 min). All substances tested, were dissolved in a mixture of A/B (0.5 mg/mL, 1:1, v/v). OriginPro 2016G software (Northampton, United States) was used for non-linear regression and data evaluation.

[3] = system: AR42J tumor-bearing CB17-SCID mice; experiment: Biodistribution at 24 h p.i. in AR42J tumor-bearing CB17-SCID mice; assay type: in vivo; conditions: for reduction of kidney accumulation and retention compared to [177Lu]Lu-DOTA-rhCCK-18: p < 0.0001
Protocol: (§1) Animal experiments were carried out according to the general animal welfare regulations in Germany (German animal protection act, in the edition of the announcement, dated 18 May 2006, as amended by Article 280 of 19 June 2020, approval no. ROB-55.2–1-2532.Vet_02-18–109 by the General Administration of Upper Bavaria) and the institutional guidelines for the care and use of animals. Therefore, CB17-SCID mice of both genders and aged 2–4 months (Charles River Laboratories International Inc., Sulzfeld, Germany) were used. After arrival at the in-house facilities, mice were allowed to acclimate for a minimum of one week before inoculation of AR42J cells. AR42J cells (6.0 × 10^6 cells per 200 μL) were suspended in a mixture (v/v = 1/1) of nutrient medium and Cultrex® Basement Membrane Matrix Type 3 (Trevigen Inc., Gaithersburg, MD, USA) and inoculated subcutaneously onto the right shoulder of CB17-SCID mice according to a previously reported protocol. Animals were excluded from the study when reaching one of the following endpoints: a weight loss higher than 20%, a tumor size above 1500 mm^3, an ulceration of the tumor, respiratory distress or change of behavior [8]. None of these criteria applied to any animal from the experiment. Neither randomization nor blinding was applied in the allocation of the experiments. Health status of the animals is specific pathogen free according to Federation of European Laboratory Animal Science Associations recommendation.
(§2) Biodistribution studies (n = 4) and µSPECT/CT imaging (n = 1) at 24 h p.i. were carried out as previously published. For all in vivo experiments, approximately 2–3 MBq (100 pmol) of the respective ^177Lu-labeled peptide were administered.
(§3) Table S2. Biodistribution data of [^177Lu]Lu-DOTA-rhCCK-70 and [^177Lu]Lu-DOTA-rhCCK-91 in selected organs at 24 h p.i. in AR42J tumor-bearing CB17-SCID mice (100 pmol each). Data are expressed as %ID/g, mean ± SD.
(§4) Table S3. Tumor-to-background ratios of [^177Lu]Lu-DOTA-rhCCK-70 and [^177Lu]Lu-DOTA-rhCCK-91 in selected organs at 24 h p.i. in AR42J tumor-bearing CB17-SCID mice (100 pmol each). Data are expressed as %ID/g, mean ± SD.

[4] = as above; assay type: in vivo; conditions: mouse, 100 pmol, 100 pmol; for tissue to tissue ratio at 24 h: both sexes, CB17-SCID, total radioactivity
Protocol: as §1, §2, §3, §4

[5] = tumor/adrenal, n=4, Table S3, read-out: Tumor-to-background ratio, Adrenal
[6] = tumor/blood, n=4, Table S3, read-out: Tumor-to-background ratio, Blood
[7] = tumor/bone, n=4, Table S3, read-out: Tumor-to-background ratio, Bone
[8] = tumor/heart, n=4, Table S3, read-out: Tumor-to-background ratio, Heart
[9] = tumor/intestine, n=4, Table S3, read-out: Tumor-to-background ratio, Intestine
[10] = tumor/kidney, n=4, Table S3, read-out: Tumor-to-background ratio, Kidney
[11] = tumor/liver, n=4, Table S3, read-out: Tumor-to-background ratio, Liver
[12] = tumor/lung, n=4, Table S3, read-out: Tumor-to-background ratio, Lung
[13] = tumor/muscle, n=4, Table S3, read-out: Tumor-to-background ratio, Muscle
[14] = tumor/pancreas, n=4, Table S3, read-out: Tumor-to-background ratio, Pancreas
[15] = tumor/spleen, n=4, Table S3, read-out: Tumor-to-background ratio, Spleen
[16] = tumor/stomach, n=4, Table S3, read-out: Tumor-to-background ratio, Stomach
[17] = adrenal, n=4, mean ± SD, read-out: Biodistribution, Adrenal
[18] = blood, n=4, mean ± SD, read-out: Biodistribution, Blood
[19] = bone, n=4, mean ± SD, read-out: Biodistribution, Bone
[20] = heart, n=4, mean ± SD, read-out: Biodistribution, Heart
[21] = intestine, n=4, mean ± SD, read-out: Biodistribution, Intestine
[22] = kidney, n=4, mean ± SD, read-out: Biodistribution, Kidney
[23] = liver, n=4, mean ± SD, read-out: Biodistribution, Liver
[24] = lung, n=4, mean ± SD, read-out: Biodistribution, Lung
[25] = muscle, n=4, mean ± SD, read-out: Biodistribution, Muscle
[26] = pancreas, n=4, mean ± SD, read-out: Biodistribution, Pancreas
[27] = spleen, n=4, mean ± SD, read-out: Biodistribution, Spleen
[28] = stomach, n=4, mean ± SD, read-out: Biodistribution, Stomach
[29] = tumor (AR42J xenograft), n=4, mean ± SD, read-out: Biodistribution, Tumor (AR42J xenograft)

Structure (SMILES)	logD [1]	HSA binding [2] [%]	decrease of activity levels in the tumor compared to [177Lu]Lu-DOTA-rhCCK-18 [3]	Biodistribution, Kidney ([3]; 100 pmol, n=4, mean ± SD) [%ID/g]	Biodistribution, Liver ([3]; 100 pmol, n=4, mean ± SD) [%ID/g]	Biodistribution, Spleen ([3]; 100 pmol, n=4, mean ± SD) [%ID/g]	Biodistribution, Stomach ([3]; 100 pmol, n=4, mean ± SD) [%ID/g]	reduction of kidney accumulation and retention compared to [177Lu]Lu-DOTA-rhCCK-18 [3] [fold]	tissue to tissue ratio at 24 h [4, 5]	tissue to tissue ratio at 24 h [4, 6]	tissue to tissue ratio at 24 h [4, 7]	tissue to tissue ratio at 24 h [4, 8]	tissue to tissue ratio at 24 h [4, 9]	tissue to tissue ratio at 24 h [4, 10]	tissue to tissue ratio at 24 h [4, 11]	tissue to tissue ratio at 24 h [4, 12]	tissue to tissue ratio at 24 h [4, 13]	tissue to tissue ratio at 24 h [4, 14]	tissue to tissue ratio at 24 h [4, 15]	tissue to tissue ratio at 24 h [4, 16]	further results
CCCC[C@@H](C(=O)N[C@@H](CC(=O)O)C(=O)N[C@@H](Cc1cccc2ccccc12)C(N)=O)N(C)C(=O)[C@H](Cc1c[nH]c2ccccc12)NC(=O)CCOCCOCCOCCOCCNC(=O)CC[C@@H](NC(=O)CCOCCOCCOCCOCCOCCOCCOCCOCCNC(=O)CC[C@@H](NC(=O)[C@@H](CNC(=O)c1ccc([Si](F)(C(C)(C)C)C(C)(C)C)cc1)NC(=O)CN1CCN(CC(=O)O)CCN(CC(=O)O)CCN(CC(=O)O)CC1)C(=O)O)C(=O)O [[^nat/177Lu]Lu-DOTA-rhCCK-70, DOTA-D-Dap(p-SiFA)-D-γ-Glu-(PEG)7-D-γ-Glu-(PEG)3-Trp-(N-Me)Nle-Asp-1-Nal-NH2, metal not drawn]	-1.67	89.3	2 fold	8.37 ± 0.78	3.48 ± 1.66	1.92 ± 0.60	6.21 ± 0.85	16	20.5 ± 8.5	143 ± 49	9.48 ± 8.05	55.4 ± 13.4	27.4 ± 7.7	1.44 ± 0.12	4.26 ± 1.7	33.4 ± 8.53	276 ± 189	55.2 ± 19.6	6.95 ± 2.17	1.97 ± 0.24	tumor-to-kidney ratio [3]: 1.45 ± 0.12; tissue to tissue ratio at 24 h ([4]; tumor/kidney, read-out: tumor-to-kidney ratio): 1.4 ± 0.1; tissue to tissue ratio at 24 h ([4]; tumor/stomach, read-out: tumor-to-stomach ratio): 2 ± 0.2; tissue uptake at 24 h [4, 17]: 0.55 ± 0.46 %ID/g; tissue uptake at 24 h [4, 18]: 0.1 ± 0.04 %ID/g; tissue uptake at 24 h ([4]; bone, depending on 177Lu-batch, read-out: activity levels in the bone, range observed (correlating with free lutetium-177)): 0.5 to 4.3 %ID/g; tissue uptake at 24 h [4, 19]: 2.4 ± 1.5 %ID/g; tissue uptake at 24 h [4, 20]: 0.23 ± 0.05 %ID/g; tissue uptake at 24 h [4, 21]: 0.48 ± 0.13 %ID/g; tissue uptake at 24 h [4, 22]: 8.4 ± 0.8 %ID/g; tissue uptake at 24 h [4, 23]: 3.5 ± 1.7 %ID/g; tissue uptake at 24 h [4, 24]: 0.39 ± 0.12 %ID/g; tissue uptake at 24 h [4, 25]: 0.06 ± 0.03 %ID/g; tissue uptake at 24 h [4, 26]: 0.24 ± 0.08 %ID/g; tissue uptake at 24 h [4, 27]: 1.9 ± 0.6 %ID/g; tissue uptake at 24 h [4, 28]: 6.2 ± 0.9 %ID/g; tissue uptake at 24 h [4, 29]: 12 ± 0.8 %ID/g
CCCC[C@@H](C(=O)N[C@@H](CC(=O)O)C(=O)N[C@@H](Cc1cccc2ccccc12)C(N)=O)N(C)C(=O)[C@H](Cc1c[nH]c2ccccc12)NC(=O)CCOCCOCCOCCOCCNC(=O)CC[C@@H](NC(=O)CCOCCOCCOCCOCCOCCNC(=O)CC[C@@H](NC(=O)[C@@H](CNC(=O)C[N+](C)(C)Cc1ccc([Si](F)(C(C)(C)C)C(C)(C)C)cc1)NC(=O)CN1CCN(CC(=O)O)CCN(CC(=O)O)CCN(CC(=O)O)CC1)C(=O)O)C(=O)O [[^nat/177Lu]Lu-DOTA-rhCCK-91, DOTA-D-Dap(SiFAlin)-D-γ-Glu-(PEG)4-D-γ-Glu-(PEG)3-Trp-(N-Me)Nle-Asp-1-Nal-NH2, metal not drawn]	-1.66 ± 0.08	90.0	three	6.58 ± 0.53	1.96 ± 0.08	1.04 ± 0.26	3.99 ± 1.16	20	17.3 ± 1.9	185 ± 32	11.8 ± 0.72	25.3 ± 5.2	12.3 ± 5.1	1.14 ± 0.12	3.8 ± 0.37	29.3 ± 4.2	147 ± 65	8.98 ± 2.1	7.35 ± 0.75	1.95 ± 0.27	Biodistribution, Tumor (AR42J xenograft) ([3]; 100 pmol, n=4, mean ± SD): 7.47 ± 1.01 %ID/g; tissue uptake at 24 h [4, 17]: 0.44 ± 0.09 %ID/g; tissue uptake at 24 h [4, 18]: 0.04 ± 0.01 %ID/g; tissue uptake at 24 h [4, 19]: 0.64 ± 0.12 %ID/g; tissue uptake at 24 h [4, 20]: 0.31 ± 0.07 %ID/g; tissue uptake at 24 h [4, 21]: 0.68 ± 0.16 %ID/g; tissue uptake at 24 h [4, 22]: 6.6 ± 0.5 %ID/g; tissue uptake at 24 h [4, 23]: 2 ± 0.1 %ID/g; tissue uptake at 24 h [4, 24]: 0.26 ± 0.05 %ID/g; tissue uptake at 24 h [4, 25]: 0.06 ± 0.01 %ID/g; tissue uptake at 24 h [4, 26]: 0.9 ± 0.32 %ID/g; tissue uptake at 24 h [4, 27]: 1 ± 0.3 %ID/g; tissue uptake at 24 h [4, 28]: 4 ± 1.2 %ID/g; tissue uptake at 24 h [4, 29]: 7.5 ± 1 %ID/g

From article PMC10907560, “Significant reduction of activity retention in the kidneys via optimized linker sequences in radiohybrid-based minigastrin analogs” (EJNMMI Research, 2024)
